Source: US20190060340A1, “NOVEL AMINOGLYCOSIDES AND USES THEREOF IN THE TREATMENT OF GENETIC DISORDERS” (Technion Research & Development Foundation Limited, priority 2007, published 2019)
Values joined by “and” are separate entries in the source; they are usually repeats but may differ in a detail not shown here. Identical values can stand only once.

Key:
eukaryotic translation = assay: Inhibition of eukaryotic translation; assay type: biochemical
[1] = test system: R3X nonsense mutation (a premature UGA C stop codon) of the PCDH15 gene; assay: In vitro suppression and translation, pDB650-R3X reporter plasmid in rabbit reticulocyte lysate coupled transcription/translation system; assay type: biochemical, human; settings: for Conc. (concentration at which maximal suppression level was observed) / Supp. level (%), maximal in-vitro mutation suppression: R3X mutation; for Supp. level (%), maximal in-vitro mutation suppression: 35-kDa product out of total protein; for Supp. level (%), maximal in-vitro mutation suppression / Trans. level (%): at Conc. of maximal suppression; for Concentration (μM) at which maximal suppression was observed, R3X / suppression level (%), maximum in vitro, R3X: Table 20; for suppression level (%), maximum in vitro, R3X: at concentration of maximal suppression; for Trans. level (%): total protein relative to no compound
Description: Initially, Compounds 1-9 were tested for their ability to suppress this nonsense mutation in vitro, using a reporter construct carrying the R3X nonsense mutation (a premature UGA C stop codon) of the PCDH15 gene. Mutations in the PCDH15 gene which encodes protocardherin 15, cause type 1 Usher syndrome (USH1), which is characterized by profound prelingual hearing loss, vestibular areflexia, and prepubertal onset of retinitis pigmentosa (RP). Four different PCDH15 USH1-causing nonsense mutations, R3X, R245X, R643X, and R929X, have been reported in humans.
Suppression of nonsense mutations by Compounds 1-9 was tested in vitro using a reporter plasmid harboring the R3X mutation of the PCDH15 gene. To create this plasmid, the oligonucleotides 5′-[…]-3′ (SEQ ID NO: 1) and 5′-[…]-3′ (SEQ ID NO: 2) were annealed to each other and inserted into the BamHI and HindIII sites of plasmid pDB650 [6].
The resulting reporter plasmid pDB650-R3X contained a TGA C nonsense mutation between a 25-kDa polypeptide encoding open reading frame (ORF) and a 10-kDa polypeptide encoding ORF.
The plasmid was transcribed and translated in a rabbit reticulocyte lysate coupled transcription/translation system (Promega) in the presence of [^35S]-methionine, and the reaction products were separated by SDS-PAGE and quantified using Phosphorlmager analysis. The mutation suppression level was calculated as the relative proportion of the 35-kDa product out of total protein (the sum of 35-kDa and 25-kDa), and the translation level was calculated as the relative proportion of the total protein at each tested compound concentration out of the total protein without the presence of the tested compounds.
The tested concentrations of paromomycin were 0, 5, 10, 20, 30 and 40 μg/ml, tested concentrations of gentamicin were 0, 5, 10, 20, and 30 μg/ml, and the tested concentrations of Compounds 1-9 were in the range of 0-160 μg/ml.
Compound 37 was tested for its ability to suppress a nonsense mutation in-vitro, using a reporter construct carrying either R3X nonsense mutation (a premature UGA C stop codon) or R245X nonsense mutation (a premature UGA A stop codon) of the PCDH15 gene, using gentamicin, paromomycin and Compound 3 as standards and following the experimental procedures presented hereinabove.
For the rat-PGM-β-Gal in vitro readthrough system, the pDB series of reporter plasmids harbor the following elements under SP6 promoter control: an open reading frame (ORF) derived from the 5′ end of the rat PGM gene, which encodes a 25-kDa polypeptide; another small ORF, encoding the 10-kDa alpha complementation region of β-galactosidase, and terminated by tandem, in-frame stop codons (UAA UAG); located between the two ORFs is a DNA fragment derived from PCDH15 cDNA, including the tested stop mutation or the corresponding wild-type codon, and six upstream and downstream flanking codons (except for p.R3X constructs, in which there are only two upstream PCDH15-flanking codons). The fragments were created by annealing the following couples of complementary oligonucleotides:
The fragments were inserted into the BamHI and HindIII restriction sites of the pDB read-through construct. Reporter plasmids harboring each of the four nonsense mutations and the corresponding wt alleles were in vitro transcribed and translated using the TNT SP6 Coupled Reticulocyte lysate System (Promega) in the presence of [^35S]-methionine and increasing concentrations of aminoglycosides as described previously. […] The degree of suppression was calculated as the relative proportion of the 35-kDa product out of total reaction products (35-kDa and 25-kDa polypeptides). The results are averages of at least three independent experiments.

[2] = test system: R3X (PCDH15, Usher Syndrome); assay: Dual luciferase in vitro transcription/translation assay; assay type: biochemical, human
From the text: (§1) DNA fragments derived from the subsequent genes, including the tested stop mutation or the corresponding wild-type codon, and four upstream and downstream flanking codons (except for p.R3X constructs, in which there are only two upstream PCDH15-flanking codons) were cloned into p2Luc plasmid between renilla and firefly luciferase genes as described previously. The formed plasmids, as well as the original p2Luc plasmid containing a TGA C nonsense mutation, were transcribed and translated in vitro and the stop codon suppression efficiency was calculated as described previously.
(§2) For the dual luciferase in vitro transcription/translation assay, DNA fragments derived from PCDH15, CFTR, Dystrophin and IDUA cDNAs, including the tested stop mutation or the corresponding wild-type codon, and four upstream and downstream flanking codons (except for p.R3X constructs, in which there are only two upstream PCDH15-flanking codons) were created by annealing the couples of complementary oligonucleotides presented above.
(§3) Fragments were inserted into the SalI and SacI restriction sites of the p2Luc plasmid between renilla and firefly luciferase genes. The afforded plasmids, as well as the original p2Luc plasmid containing a TGA C nonsense mutation, were transcribed and translated using the TNT Reticulocyte Lysate Quick Coupled Transcription/Translation System (Promega™). Each transcription/translation reaction (10 μl, total volume) contained 8 μl TNT T7 Quick Master Mix, 0.2 μl methionine (1 mM), 0.8 μl DNA template (2 μg/μl), 1 μl of either water (blank) or 1 μl solution of increasing concentrations of the tested aminoglycosides in water. Luciferase activity was determined following 90 minutes incubation at 30° C. using the Dual Luciferase Reporter Assay System (Promega™). The total luminescence produced by each one of the proteins was measured separately using the FLx800 multidetection plate reader (Bio-Tek) and the stop codon suppression efficiency was calculated as described previously. The results are averages of at least three independent experiments.

[3] = test system: W402X (IDUA, Hurler Syndrome); assay: as above; assay type: biochemical, human
From the text: as §1, §2, §3

[4] = test system: R3381X (Dystrophin, Duchenne Muscular Dystrophy); assay: as above; assay type: biochemical, human
From the text: as §1, §2, §3

[5] = test system: G542X (CFTR, Cystic Fibrosis); assay: as above; assay type: biochemical, human
From the text: as §1, §2, §3

[6] = test system: R245X (PCDH15, Usher Syndrome); assay: as above; assay type: biochemical, human
From the text: as §1, §2, §3

[7] = test system: W1282X (CFTR, Cystic Fibrosis); assay: as above; assay type: biochemical, human
From the text: as §1, §2, §3

[8] = test system: Q70X (IDUA, Hurler Syndrome); assay: as above; assay type: biochemical, human
From the text: as §1, §2, §3

[9] = test system: original p2Luc plasmid containing a TGA C nonsense mutation; assay: as above; assay type: biochemical; settings: for Conc. (μM) at which maximum suppression level was achieved: dual luciferase in vitro system, all constructs of Table 21; for Maximum in vitro suppression (%) UGAC: p2luc
From the text: as §1, §2, §3

Compound | IC50 (eukaryotic translation) | fold more efficient inhibition of eukaryotic translation than gentamicin and paromomycin (eukaryotic translation) | Conc. (concentration at which maximal suppression level was observed) ([1]; in vitro) | Supp. level (%), maximal in-vitro mutation suppression [1] | Concentration (μM) at which maximal suppression was observed, R3X [1] | suppression level (%), maximum in vitro, R3X [1] | Maximum in vitro suppression (%) R3X [2] | Maximum in vitro suppression (%) W402X [3] | Maximum in vitro suppression (%) R3381X [4] | Maximum in vitro suppression (%) G542X [5] | Maximum in vitro suppression (%) R245X [6] | Maximum in vitro suppression (%) W1282X [7] | Maximum in vitro suppression (%) Q70X [8] | Conc. (μM) at which maximum suppression level was achieved [9] | Maximum in vitro suppression (%) UGAC [9] | Trans. level (%) [1] | other results
NC[C@H]1O[C@@H](O[C@@H]2[C@@H](O)[C@H](N)C[C@H](N)[C@H]2O[C@H]2O[C@H](CO)[C@@H](O)[C@H](O)[C@H]2N)[C@H](O)[C@@H]1O [Compound 3] | 31 µM | about 2 fold | 80 µg/mL | 21 ± 3% | 142 µM | 21% and 21 ± 9% | 2.9 ± 0.9% | 3.2 ± 0.4% | 1.8 ± 0.2% | 0.63 ± 0.29% | 0.98 ± 0.30% | 1.6 ± 0.4% | 2.0 ± 0.4% | 107 µM | 4.8 ± 0.8% | – | fold higher activity compared to Compound 1 ([1]; R3X, in vitro): over 3 fold; fold higher suppression level compared to Compound 2 ([1]; R3X, in vitro): 13 fold
NCC[C@H](O)C(=O)N[C@@H]1CC(N)[C@@H](O[C@H]2OC(CO)[C@@H](O)C(O)C2N)C(O[C@@H]2O[C@H](CN)C(O)C2O)C1O (stereo partly drawn) [Compound 37] | 24 µM | about 3 fold | – | – | 153 µM | 71% and 71 ± 9% | 29.2 ± 3.1% | 21.9 ± 4.4% | 7.8 ± 0.8% | 5.1 ± 0.6% | 4.9 ± 0.5% | 3.3 ± 0.4% | 10.6 ± 1.1% | 46 µM | 18.4 ± 1.6% | – | –
NC[C@@H]1O[C@H](O[C@H]2[C@@H](O)[C@H](O[C@@H]3[C@@H](O)[C@H](N)C[C@H](N)[C@H]3O[C@H]3O[C@H](CO)[C@@H](O)[C@H](O)[C@H]3N)O[C@@H]2CO)[C@H](N)[C@@H](O)[C@@H]1O [paromomycin, reference compound] | 58 µM | – | 40 µg/mL | 49% | 56 µM | 49 ± 6% | 9.4 ± 0.5% | 3.3 ± 0.1% | 2.4 ± 0.3% | 0.74 ± 0.08% | 0.71 ± 0.32% | 1.2 ± 0.2% | 2.2 ± 0.5% | 42 µM | 7.8 ± 2.2% | about 40% | Supp. level (%), maximal in-vitro mutation suppression ([1]; listed as Paromomycin): 49 ± 6%; Trans. level (%) ([1]; listed as Paromomycin): 40 ± 13%
gentamicin [reference compound] | 60 µM | – | 30 µg/mL | 49 ± 4% | 46 µM | 50 ± 3% | 14.0 ± 1.0% | 7.2 ± 0.5% | 3.5 ± 0.7% | 2.8 ± 0.7% | 0.90 ± 0.28% | 1.4 ± 0.5% | 1.5 ± 0.4% | 46 µM | 17.7 ± 2.9% | about 40% | Trans. level (%) ([1]; listed as Gentamicin): 40 ± 9%
